Values quoted from earlier work as cited in PubChem BioAssay AID1259409 (Chemical Carcinogenesis Research Information System (CCRIS), 2018).

Test system: rodent chemically induced tumor inhibition, incidence and multiplicity
Assay: CCRIS tumor inhibitor studies
Settings: Species: RAT; for tumour outcome (control, treated, inhibition, significance): Carcinogen: DIETHYLNITROSAMINE, 55-18-5, N-METHYL-N-NITROSOUREA, 684-93-5, N-BUTYL-N-(4-HYDROXYBUTYL)NITROSAMINE, 3817-11-6, DIMETHY, Dose [Inhibitor]: 0, Route [Inhibitor]: ORAL, Strain/Sex: F344/MALE, Dose [Carcinogen]: 100 MG/KG BW DEN ONCE FOLLOWED BY 20 MG/KG BW MNU 4 TIMES AND 0.05% BBN IN DRINKING WATER DURING FIRST 2 WK THEN 40 MG/K, Promoter: NONE USED

SMILES: CCCCCCOc1cc(C)c(O)c(C)c1C
- tumour outcome (control, treated, inhibition, significance) (1% IN THE DIET FOR 24 WK BEGINNING 1 DAY POST CARCINOGEN TREATMENT (STUDY DURATION: 28 WK), Target Tissue: Type of Lesion: SMALL INTESTINE: ADENOMA): 33%, 0%, 100%, p<0.05
- tumour outcome (control, treated, inhibition, significance) (1% IN THE DIET FOR 24 WK BEGINNING 1 DAY POST CARCINOGEN TREATMENT (STUDY DURATION: 28 WK), Target Tissue: Type of Lesion: THYROID: CARCINOMA): 7%, 8%, -14%, not significant
- tumour outcome (control, treated, inhibition, significance) (1% IN THE DIET FOR 24 WK BEGINNING 1 DAY POST CARCINOGEN TREATMENT (STUDY DURATION: 28 WK), Target Tissue: Type of Lesion: URINARY BLADDER: CARCINOMA): 7%, 0%, 100%, not significant
- tumour outcome (control, treated, inhibition, significance) (1% IN THE DIET FOR 24 WK BEGINNING 1 DAY POST CARCINOGEN TREATMENT(STUDY DURATION: 28 WK), Target Tissue: Type of Lesion: SMALL INTESTINE: CARCINOMA): 7%, 0%, 100%, not significant
- tumour outcome (control, treated, inhibition, significance) (1% IN THE DIET FOR 30 D BEGINNING 1 D PRIOR TO CARCINOGEN TREATMENT (STUDY DURATION: 28 WK), Target Tissue: Type of Lesion: URINARY BLADDER: PAPILLOMA): 7%, 21%, -200%, not significant
- tumour outcome (control, treated, inhibition, significance) (1% IN THE DIET FOR 30 D BEGINNING 1 DAY PRIOR TO CARCINOGEN TREATMENT (STUDY DURATION: 28 WK), Target Tissue: Type of Lesion: LARGE INTESTINE: CARCINOMA): 7%, 0%, 100%, not significant
- tumour outcome (control, treated, inhibition, significance) (1% IN THE DIET FOR 30 D BEGINNING 1 DAY PRIOR TO CARCINOGEN TREATMENT (STUDY DURATION: 28 WK), Target Tissue: Type of Lesion: SMALL INTESTINE: ADENOMA): 33%, 14%, 58%, not significant
- tumour outcome (control, treated, inhibition, significance) (1% IN THE DIET FOR 30 D BEGINNING 1 DAY PRIOR TO CARCINOGEN TREATMENT (STUDY DURATION: 28 WK), Target Tissue: Type of Lesion: THYROID: CARCINOMA): 7%, 0%, 100%, not significant
- tumour outcome (control, treated, inhibition, significance) (1% IN THE DIET FOR 30 D BEGINNING 1 DAY PRIOR TO CARCINOGEN TREATMENT (STUDY DURATION: 28 WK), Target Tissue: Type of Lesion: URINARY BLADDER: CARCINOMA): 7%, 14%, -100%, not significant
- outcome (Carcinogen: SUBCUTANEOUS, Dose [Inhibitor]: 1,2-DIMETHYLHYDRAZINE [540-73-8], Route [Inhibitor]: 0.125% IN DIET FOR 32 WK BEGINNING 1 WK POST LAST CARCINOGEN DOSE (STUDY DURATION: 36 WK), Strain/Sex: ORAL, Target Tissue: Type of Lesion: 20/21 (95%), 21/21 (100%), -5%, NOT SIGNIFICANT, Dose [Carcinogen]: 2-AMINO-1-METHYL-6-PHENYLIMIDAZO[4,5-B]PYRIDINE [105650-23-5], Promoter: ORAL): 9.1, 6.2, 32%, not significant
